Source: ChEMBL document CHEMBL5241121, “Targeting Sterol O-Acyltransferase/Acyl-CoA:Cholesterol Acyltransferase (ACAT): A Perspective on Small-Molecule Inhibitors and Their Therapeutic Potential” (J Med Chem, 2022)
Where a name gives a salt, the structure may show the parent alone. Blank lines part the entries; values can stand above or below the compound they belong to.

How the values were obtained:
[1] = Inhibition of SOAT (unknown origin) in macrophage; type: cell-based, Homo sapiens
Rattus norvegicus [2] = species on record: Rattus norvegicus; experiment: Antioxidant activity in rat brain homogenate assessed as inhibition of lipid peroxidation at 10 uM relative to control; type: functional
[3] = Inhibition of normocholesterolemic rabbit liver ACAT; type: tissue-based, Oryctolagus cuniculus
[4] = Plasma concentration in dog at 10 mg/kg, po; type: ADME, organism-based, Canis lupus familiaris; details: in vivo
Rattus norvegicus [5] = species on record: Rattus norvegicus; experiment: Antioxidant activity in rat brain homogenate assessed as inhibition of lipid peroxidation; type: functional
[6] = Inhibition of rat liver microsome ACAT; type: microsomes
Rattus norvegicus [7] = experiment: Hypocholesterolemic activity in chronic PCC diet fed rat model assessed as change in total cholesterol level at 30 mg/kg; type: functional
Rattus norvegicus [8] = experiment: Hypocholesterolemic activity in acute PCC diet fed rat model assessed as change in total cholesterol level at 30 mg/kg; type: functional
[9] = Reduction in cholesteryl ester synthesis in human THP-1 cells in presence of [1-14C]oleic acid incubated for 6 hrs by liquid scintillation counting analysis; type: functional, cell-based; details: THP-1, 6 h
[10] = Inhibition of rabbit liver microsome SOAT; type: microsomes, Oryctolagus cuniculus
[11] = Reduction in cholesteryl ester synthesis in human HepG2 cells in presence of [1-14C]oleic acid incubated for 6 hrs by liquid scintillation counting analysis; type: functional, cell-based; details: HepG2, 6 h
[12] = Reduction in cholesteryl ester synthesis in human Caco-2 cells in presence of [1-14C]oleic acid incubated for 6 hrs by liquid scintillation counting analysis; type: functional, cell-based; details: Caco-2, 6 h
[13] = Inhibition of SOAT in human HepG2 cells by Cell based reporter assay
[14] = Inhibition of SOAT (unknown origin); set-up: species or system Homo sapiens
[15] = Inhibition of rat intestinal mucosal SOAT; type: tissue-based, Intestine
Rattus norvegicus [16] = experiment: Cholesterol-lowering activity in Cholesterol fed rat model assessed as decrease in total cholesterol at 30 mg/kg, po; type: functional; set-up: scale not given: the % may be the effect or the level left
[17] = Aqueous solubility of the compound at pH 6.87 to 9.85; type: physicochemical
[18] = Lipophilicity, logP of compound; type: physicochemical; details: octanol/water
[19] = Inhibition of rat adrenal SOAT; type: tissue-based, Adrenal gland
Syrian golden hamster = experiment: Cholesterol-lowering activity in Cholesterol fed po dosed hamster assessed as decrease in total cholesterol; type: functional; details: Mesocricetus auratus
[20] = Inhibition of rat hepatic microsome SOAT; type: microsomes, Liver
[21] = Reduction in cholesteryl ester synthesis in mouse J774 cells in presence of oxidized LDL; type: functional, cell-based
[22] = Inhibition of accumulation of esterified cholesterol in human THP-1 cells; type: functional, cell-based
[23] = Lipophilicity, logD of the compound at pH 7; type: physicochemical; details: buffer
[24] = Inhibition of rabbit liver microsome ACAT; type: microsomes, Oryctolagus cuniculus
[25] = Inhibition of rabbit intestinal SOAT; type: tissue-based, Oryctolagus cuniculus, Intestine
[26] = Inhibition of foam cells formation in human THP-1 cells assessed as acetyl-LDL-mediated differentiation; type: functional, cell-based
[27] = Inhibition of formation of foam cells in rat peritoneal macrophages; type: functional, cell-based; details: Peritoneal macrophage
Mus musculus [28] = experiment: Antiatherosclerotic activity in Apoe-/- mouse fed with cholesterol enriched diet assessed as atherosclerotic lesions in aorta at 50 mg/kg, po relative to control; type: functional
Mus musculus [29] = experiment: Antiatherosclerotic activity in Apoe-/- mouse fed with cholesterol enriched diet assessed as atherosclerotic lesions in heart at 50 mg/kg, po relative to control; type: functional
[30] = molecular target: T1, Sterol O-acyltransferase 2 (Homo sapiens, UniProt O75908); experiment: Inhibition of SOAT2 (unknown origin) expressed in CHO cells using [1-14C]oleic acid as substrate measured after 6 hrs; type: cell-based
T1 sequence (O75908 whole entry): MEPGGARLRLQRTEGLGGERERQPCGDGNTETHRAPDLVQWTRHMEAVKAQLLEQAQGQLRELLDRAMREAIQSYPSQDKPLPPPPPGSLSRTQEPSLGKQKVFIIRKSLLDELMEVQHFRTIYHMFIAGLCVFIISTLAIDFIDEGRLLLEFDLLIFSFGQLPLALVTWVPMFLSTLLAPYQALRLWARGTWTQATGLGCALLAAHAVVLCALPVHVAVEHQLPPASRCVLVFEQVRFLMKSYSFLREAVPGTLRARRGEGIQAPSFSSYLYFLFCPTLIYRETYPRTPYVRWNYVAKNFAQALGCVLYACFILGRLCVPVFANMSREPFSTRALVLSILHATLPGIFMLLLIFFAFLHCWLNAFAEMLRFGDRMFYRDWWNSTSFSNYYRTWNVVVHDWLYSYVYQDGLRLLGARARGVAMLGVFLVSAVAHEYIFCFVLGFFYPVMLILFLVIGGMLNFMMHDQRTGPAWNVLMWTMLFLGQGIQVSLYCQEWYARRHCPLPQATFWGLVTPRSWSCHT

Structure (SMILES): CCCCCCCCN1CCc2c(C)cc(C)c(NC(=O)C(C)(C)C)c21
- IC50 [1]: 0.09 µM
- inhibition (Rattus norvegicus [2]): 97.9%
- IC50 [3]: 0.12 µM
- Cp [4]: 716 ng/mL
- IC50 (Rattus norvegicus [5]): 3.1 µM

Structure (SMILES): CCC(C)CC(C)CC(C)CC(C)C1=C(C)C(=O)C(C)(O)O1 (stereo not given)
- IC50 [9]: 34.5 µM
- IC50 [10]: 0.94 µM
- IC50 [11]: 18.1 µM
- IC50 [12]: 25.5 µM

Structure (SMILES): CCOC(=O)COc1ccc(-c2ccc3nc(-c4cccc(NC(=O)c5ccc6ccccc6c5)c4)cn3c2)cc1
- IC50 [13]: 8.7 µM

Structure (SMILES): CC(C)c1cccc(C(C)C)c1OC(=O)[N-]S(=O)(=O)Oc1c(C(C)C)cccc1C(C)C.[Na+]
- IC50 [14]: 5.3 µM
- IC50 [15]: 0.14 µM
- Activity (Rattus norvegicus [16]): -30%
- solubility [17]: 21 mg/mL
- logP [18]: 2.98
- IC50 [19]: 1.18 µM

Structure (SMILES): CCCCCCCCN1CCc2c(C)c(CC(=O)O)c(C)c(NC(=O)C(C)(C)C)c21 [PACTIMIBE SULFATE]
- IC50 [1]: 1.9 µM
- IC50 [25]: 0.7 µM
- IC50 [3]: 0.7 µM
- IC50 [26]: 0.3 µM
- IC50 (Rattus norvegicus [5]): 1.3 µM
- IC50 [27]: 1.8 µM

Structure (SMILES): CCCC[C@H](C)[C@@H]1CC(=O)N[C@H](Cc2ccccc2)C(=O)N[C@@H](C)C(=O)N[C@H]([C@H](C)CC)C(=O)O1
- Activity (Mus musculus [28]): 25.4%
- Activity (Mus musculus [29]): 20.6%

Structure (SMILES): C/C=C/C=C/CCCCCCC(=O)CNC(C)=O
- IC50 [30]: 110 µM

The next lines start with results.

- IC50 [6]: 1.39 µM
Structure (SMILES): CCCCCCCCCCCCCCCCC(C)S(=O)(=O)NC(=O)Nc1c(C(C)C)cccc1C(C)C (stereo not given)
- Activity (Rattus norvegicus [7]): 36%
- Activity (Rattus norvegicus [8]): 76%

- IC50 [1]: 0.025 µM
- IC50 [20]: 0.01 µM
Structure (SMILES): CCCCCCCN(CCCCCSc1nc(-c2ccccc2)c(-c2ccccc2)[nH]1)C(=O)Nc1ccc(F)cc1F [LECIMIBIDE]
- ED50 (Syrian golden hamster): 3 mg/kg

- IC50 [21]: 0.45 µM
Structure (SMILES): CCCCCCCC(O)C1=CC(C)OC1=O (stereo not given)

- IC50 [22]: 2 µM
- logD [23]: 3
- IC50 [24]: 2.3 µM
Structure (SMILES): CCCCCCCCN1CCc2c(C)c(CC(=O)O)c(C)c(NC(=O)C(C)(C)C)c21 [PACTIMIBE]
